Molecules are shown by their SMILES. Like-named read-outs stand apart in the source and are kept apart here.

This is an account of results in paper PMC6478789, “A chemical toolbox for the study of bromodomains and epigenetic signaling” (Nature Communications, 2019).

Assay [1] has as its target T1, EP300 (Homo sapiens, UniProt Q09472).
T1 sequence (Q09472 1049-1156 limits assumed): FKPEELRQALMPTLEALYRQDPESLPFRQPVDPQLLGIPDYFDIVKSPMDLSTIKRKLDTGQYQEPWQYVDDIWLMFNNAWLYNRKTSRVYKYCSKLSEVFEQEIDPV
As to the kind of experiment: BROMOscan ligand-binding assay. The conditions noted are these: EP300.
Description: (§1) BROMOscan is a binding assay based on the well-known KINOMEscan technology. This assay measures the binding of a DNA-tagged bromodomain to an immobilized BRD ligand. If an inhibitor is present, it will compete with the bromodomain binding to the immobilized ligand, resulting in reduction of a quantitative PCR (qPCR) signal in a dose-dependent manner.

For a further assay, the target named is T2, PCAF (Homo sapiens, UniProt Q92831).
T2 sequence (Q92831 723-827 limits assumed): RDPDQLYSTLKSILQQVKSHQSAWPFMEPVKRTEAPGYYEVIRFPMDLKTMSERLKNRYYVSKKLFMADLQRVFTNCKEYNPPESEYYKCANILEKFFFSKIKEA
As to the kind of experiment: BROMOscan ligand-binding assay. The conditions noted are these: PCAF.

In assay [2] the target is EP300 (Homo sapiens, UniProt Q09472). As to the kind of experiment: Histone acetyltransferase (HAT) activity assay. It counts as biochemical.
Target sequence in this assay (Q09472 whole entry, species assumed): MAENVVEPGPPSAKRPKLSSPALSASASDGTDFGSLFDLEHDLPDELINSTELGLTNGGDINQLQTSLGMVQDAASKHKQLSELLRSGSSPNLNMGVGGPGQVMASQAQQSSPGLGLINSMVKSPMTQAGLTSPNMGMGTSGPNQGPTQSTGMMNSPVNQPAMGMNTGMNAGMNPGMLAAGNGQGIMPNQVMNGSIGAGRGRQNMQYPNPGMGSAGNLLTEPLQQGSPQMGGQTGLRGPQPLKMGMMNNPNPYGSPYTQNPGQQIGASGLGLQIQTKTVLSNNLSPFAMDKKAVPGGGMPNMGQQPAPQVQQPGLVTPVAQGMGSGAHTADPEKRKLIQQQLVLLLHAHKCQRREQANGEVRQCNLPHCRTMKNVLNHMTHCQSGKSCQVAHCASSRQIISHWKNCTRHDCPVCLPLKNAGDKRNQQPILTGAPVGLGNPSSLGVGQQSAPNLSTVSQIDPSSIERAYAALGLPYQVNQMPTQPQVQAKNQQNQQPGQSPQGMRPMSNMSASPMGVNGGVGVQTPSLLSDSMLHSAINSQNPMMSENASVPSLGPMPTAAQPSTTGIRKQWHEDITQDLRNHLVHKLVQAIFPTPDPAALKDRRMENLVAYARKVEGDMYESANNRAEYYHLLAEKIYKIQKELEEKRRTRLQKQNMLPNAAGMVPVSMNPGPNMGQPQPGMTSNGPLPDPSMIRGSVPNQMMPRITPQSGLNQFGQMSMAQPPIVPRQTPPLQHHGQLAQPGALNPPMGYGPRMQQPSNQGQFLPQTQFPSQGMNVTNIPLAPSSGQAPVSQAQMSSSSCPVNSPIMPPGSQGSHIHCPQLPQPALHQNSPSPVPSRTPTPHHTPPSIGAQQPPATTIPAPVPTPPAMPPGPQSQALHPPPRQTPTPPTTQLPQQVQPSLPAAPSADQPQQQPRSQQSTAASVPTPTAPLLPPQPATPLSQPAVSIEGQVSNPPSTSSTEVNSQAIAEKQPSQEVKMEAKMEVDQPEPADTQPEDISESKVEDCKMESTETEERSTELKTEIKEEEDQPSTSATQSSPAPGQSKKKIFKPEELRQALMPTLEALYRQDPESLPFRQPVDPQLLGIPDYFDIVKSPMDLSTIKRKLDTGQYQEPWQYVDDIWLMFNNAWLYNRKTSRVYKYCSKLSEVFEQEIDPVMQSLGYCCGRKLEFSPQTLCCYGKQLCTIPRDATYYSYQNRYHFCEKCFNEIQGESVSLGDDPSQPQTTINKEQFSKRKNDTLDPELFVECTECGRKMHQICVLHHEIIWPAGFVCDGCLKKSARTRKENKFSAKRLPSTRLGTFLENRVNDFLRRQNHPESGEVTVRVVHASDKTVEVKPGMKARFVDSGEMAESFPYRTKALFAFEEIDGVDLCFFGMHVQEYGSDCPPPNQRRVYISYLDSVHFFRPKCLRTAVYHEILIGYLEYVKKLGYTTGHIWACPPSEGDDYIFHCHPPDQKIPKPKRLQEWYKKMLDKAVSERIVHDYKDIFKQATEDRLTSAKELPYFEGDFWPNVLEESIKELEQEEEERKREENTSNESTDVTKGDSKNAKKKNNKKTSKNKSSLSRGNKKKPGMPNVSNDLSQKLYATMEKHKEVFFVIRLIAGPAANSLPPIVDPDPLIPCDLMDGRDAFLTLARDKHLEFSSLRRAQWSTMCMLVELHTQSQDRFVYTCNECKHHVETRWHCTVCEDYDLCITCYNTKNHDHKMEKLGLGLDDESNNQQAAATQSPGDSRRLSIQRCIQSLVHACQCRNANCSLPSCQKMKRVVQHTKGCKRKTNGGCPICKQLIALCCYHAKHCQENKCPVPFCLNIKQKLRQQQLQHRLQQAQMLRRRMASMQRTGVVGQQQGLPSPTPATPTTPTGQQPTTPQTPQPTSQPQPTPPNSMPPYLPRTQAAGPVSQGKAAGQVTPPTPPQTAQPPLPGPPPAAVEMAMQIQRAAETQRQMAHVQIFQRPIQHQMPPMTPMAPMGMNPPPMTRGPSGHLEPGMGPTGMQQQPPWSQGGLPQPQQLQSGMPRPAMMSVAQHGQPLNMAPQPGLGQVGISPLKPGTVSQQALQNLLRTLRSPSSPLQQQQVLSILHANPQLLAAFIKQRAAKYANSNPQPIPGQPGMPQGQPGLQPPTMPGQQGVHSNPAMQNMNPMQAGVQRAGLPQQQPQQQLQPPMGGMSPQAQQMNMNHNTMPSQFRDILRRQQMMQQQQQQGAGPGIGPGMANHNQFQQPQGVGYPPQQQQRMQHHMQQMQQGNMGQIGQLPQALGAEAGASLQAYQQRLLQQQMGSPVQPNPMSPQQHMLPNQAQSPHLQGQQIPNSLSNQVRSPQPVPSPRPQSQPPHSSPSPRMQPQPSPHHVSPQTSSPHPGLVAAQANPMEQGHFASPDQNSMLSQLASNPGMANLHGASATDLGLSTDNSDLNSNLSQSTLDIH
The next assay addresses T3, ATAD2B (Homo sapiens, UniProt Q9ULI0).
T3 sequence (Q9ULI0 951-1066 limits assumed): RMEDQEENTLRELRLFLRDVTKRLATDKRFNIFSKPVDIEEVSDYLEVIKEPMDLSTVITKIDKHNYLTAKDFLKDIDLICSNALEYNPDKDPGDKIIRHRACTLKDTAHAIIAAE
The assay is described as follows: BROMOscan ligand-binding assay. The conditions noted are these: ATAD2B.

The next assay deals with MYST3 (Homo sapiens, UniProt Q92794). As to the kind of experiment: Histone acetyltransferase (HAT) activity assay. It counts as biochemical.
The next assay has as its target T4, TRIM24(PHD,BRD) (Homo sapiens, UniProt O15164).
T4 sequence (O15164 824-1006 limits assumed): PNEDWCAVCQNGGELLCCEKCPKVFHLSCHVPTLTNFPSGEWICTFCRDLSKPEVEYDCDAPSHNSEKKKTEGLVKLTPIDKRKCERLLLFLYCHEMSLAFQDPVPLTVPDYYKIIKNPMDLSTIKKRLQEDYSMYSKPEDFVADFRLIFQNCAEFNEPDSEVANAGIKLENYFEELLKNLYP
The assay is described as follows: BROMOscan ligand-binding assay. The conditions noted are these: TRIM24(PHD,Bromo.).

For another assay, the target named is BRD3(1,2) (Homo sapiens, UniProt Q15059). The assay is described as follows: BROMOscan ligand-binding assay. The conditions noted are these: BRD3(1,2).
The next assay has as its target BRD8(2) (Homo sapiens, UniProt Q9H0E9). As to the kind of experiment: BROMOscan ligand-binding assay.
For the next assay, the target named is BRD4(fl) (Homo sapiens, UniProt O60885). The assay is described as follows: BROMOscan ligand-binding assay. The conditions noted are these: BRD4(full-length,short-iso.).
The next assay concerns the target BRDT(2) (Homo sapiens, UniProt Q58F21). The assay is described as follows: BROMOscan ligand-binding assay. The conditions noted are these: BRDT(2).
A further assay has as its target GCN5L2 (Homo sapiens, UniProt Q92830). As to the kind of experiment: Histone acetyltransferase (HAT) activity assay. It counts as biochemical.
In a further assay the target is T5, MYST1 (Homo sapiens, UniProt Q9H7Z6).
T5 sequence (Q9H7Z6 1-458): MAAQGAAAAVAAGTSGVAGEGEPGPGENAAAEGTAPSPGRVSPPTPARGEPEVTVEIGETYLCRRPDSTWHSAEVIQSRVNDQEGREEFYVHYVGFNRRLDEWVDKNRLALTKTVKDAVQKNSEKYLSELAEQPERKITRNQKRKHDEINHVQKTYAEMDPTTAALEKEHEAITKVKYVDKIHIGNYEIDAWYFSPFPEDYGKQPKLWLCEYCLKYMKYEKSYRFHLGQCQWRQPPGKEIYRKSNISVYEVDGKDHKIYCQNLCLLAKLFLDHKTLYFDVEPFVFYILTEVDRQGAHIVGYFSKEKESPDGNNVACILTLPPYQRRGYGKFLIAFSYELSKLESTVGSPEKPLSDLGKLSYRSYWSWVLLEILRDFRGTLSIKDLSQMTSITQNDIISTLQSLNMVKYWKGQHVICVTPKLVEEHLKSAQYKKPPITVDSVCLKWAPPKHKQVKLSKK
The assay is described as follows: Histone acetyltransferase (HAT) activity assay. It counts as biochemical.

The next assay addresses SMARCA2 (Homo sapiens, UniProt P51531). As to the kind of experiment: BROMOscan ligand-binding assay.
For a further assay, the target named is T6, HAT1 (Homo sapiens, UniProt O14929).
T6 sequence (O14929 1-419): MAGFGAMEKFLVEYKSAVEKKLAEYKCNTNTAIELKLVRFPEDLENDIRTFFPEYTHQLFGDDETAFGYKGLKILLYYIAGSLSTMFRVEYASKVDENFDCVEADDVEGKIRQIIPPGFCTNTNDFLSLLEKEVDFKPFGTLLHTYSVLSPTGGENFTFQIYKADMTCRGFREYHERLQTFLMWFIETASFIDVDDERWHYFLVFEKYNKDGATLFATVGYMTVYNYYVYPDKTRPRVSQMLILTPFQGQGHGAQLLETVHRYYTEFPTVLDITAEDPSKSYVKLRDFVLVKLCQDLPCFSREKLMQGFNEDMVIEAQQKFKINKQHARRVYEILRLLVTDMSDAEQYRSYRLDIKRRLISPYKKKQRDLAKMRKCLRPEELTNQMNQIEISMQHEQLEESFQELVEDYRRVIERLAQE
As to the kind of experiment: Histone acetyltransferase (HAT) activity assay. It counts as biochemical.

In a further assay the target is BRD2(1,2) (Homo sapiens, UniProt P25440). As to the kind of experiment: BROMOscan ligand-binding assay. The conditions noted are these: BRD2(1,2).
Another assay concerns the target BRDT(1,2) (Homo sapiens, UniProt Q58F21). As to the kind of experiment: BROMOscan ligand-binding assay. The conditions noted are these: BRDT(1,2).
The target of the next assay is T7, BRD7 (Homo sapiens, UniProt Q9NPI1).
T7 sequence (Q9NPI1 131-235 limits assumed): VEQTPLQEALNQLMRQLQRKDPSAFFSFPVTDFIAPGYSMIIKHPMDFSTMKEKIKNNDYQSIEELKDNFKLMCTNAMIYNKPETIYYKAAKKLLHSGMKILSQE
The assay is described as follows: BROMOscan ligand-binding assay. The conditions noted are these: BRD7.

[3] abbreviates: read-out: KD (BROMOscan), sheet prints no unit (nM).

GCN5L2, sequence (Q92830 whole entry, species assumed): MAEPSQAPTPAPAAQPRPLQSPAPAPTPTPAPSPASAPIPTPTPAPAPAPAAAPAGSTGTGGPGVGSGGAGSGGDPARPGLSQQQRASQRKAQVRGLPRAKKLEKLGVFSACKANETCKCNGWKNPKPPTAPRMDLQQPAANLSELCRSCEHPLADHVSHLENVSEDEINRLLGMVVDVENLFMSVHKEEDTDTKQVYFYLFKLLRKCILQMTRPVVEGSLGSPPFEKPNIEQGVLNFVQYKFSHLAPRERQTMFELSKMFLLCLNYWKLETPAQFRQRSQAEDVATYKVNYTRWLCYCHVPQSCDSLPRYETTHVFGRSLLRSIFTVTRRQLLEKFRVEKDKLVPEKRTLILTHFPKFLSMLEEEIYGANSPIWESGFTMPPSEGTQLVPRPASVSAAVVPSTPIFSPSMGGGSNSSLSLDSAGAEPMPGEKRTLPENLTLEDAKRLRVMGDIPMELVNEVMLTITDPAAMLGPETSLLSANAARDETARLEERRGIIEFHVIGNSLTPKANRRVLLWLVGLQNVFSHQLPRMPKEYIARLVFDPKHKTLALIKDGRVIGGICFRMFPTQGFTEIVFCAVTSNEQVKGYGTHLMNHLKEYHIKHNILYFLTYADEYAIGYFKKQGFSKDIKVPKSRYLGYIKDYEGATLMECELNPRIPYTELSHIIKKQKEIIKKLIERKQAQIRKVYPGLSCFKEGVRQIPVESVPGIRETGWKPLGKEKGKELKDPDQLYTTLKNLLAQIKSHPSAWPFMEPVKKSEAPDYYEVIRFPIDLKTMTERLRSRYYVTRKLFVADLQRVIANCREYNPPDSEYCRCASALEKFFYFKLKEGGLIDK
BRD3(1,2), sequence (Q15059 24-416 limits assumed): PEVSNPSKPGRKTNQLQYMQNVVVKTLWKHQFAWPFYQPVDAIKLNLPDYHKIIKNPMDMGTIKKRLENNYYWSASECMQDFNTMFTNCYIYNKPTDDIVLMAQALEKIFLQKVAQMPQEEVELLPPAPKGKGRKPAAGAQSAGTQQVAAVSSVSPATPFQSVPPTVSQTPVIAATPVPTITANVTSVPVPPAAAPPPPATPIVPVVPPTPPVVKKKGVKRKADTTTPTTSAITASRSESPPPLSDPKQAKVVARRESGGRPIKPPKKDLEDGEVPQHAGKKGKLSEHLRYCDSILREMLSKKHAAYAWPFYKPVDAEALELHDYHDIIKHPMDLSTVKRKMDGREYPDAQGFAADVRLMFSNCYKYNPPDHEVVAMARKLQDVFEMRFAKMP
BRD8(2), sequence (Q9H0E9 1099-1207 limits assumed): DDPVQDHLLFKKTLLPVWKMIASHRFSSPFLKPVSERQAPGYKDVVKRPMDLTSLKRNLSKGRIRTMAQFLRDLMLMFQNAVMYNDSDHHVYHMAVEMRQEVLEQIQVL
BRD2(1,2), sequence (P25440 71-455 limits assumed): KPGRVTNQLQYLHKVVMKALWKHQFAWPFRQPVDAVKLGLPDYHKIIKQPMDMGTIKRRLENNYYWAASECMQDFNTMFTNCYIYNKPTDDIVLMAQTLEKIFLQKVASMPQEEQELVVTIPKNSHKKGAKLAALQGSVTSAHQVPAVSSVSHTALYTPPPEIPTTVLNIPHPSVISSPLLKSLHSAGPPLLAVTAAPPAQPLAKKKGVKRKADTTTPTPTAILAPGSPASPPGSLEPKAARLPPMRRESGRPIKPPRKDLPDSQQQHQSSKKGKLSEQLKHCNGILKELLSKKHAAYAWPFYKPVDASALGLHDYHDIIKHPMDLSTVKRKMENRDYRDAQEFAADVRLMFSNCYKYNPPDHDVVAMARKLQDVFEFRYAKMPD
Description for ATAD2B: as §1
Description for BRD2(1,2): as §1
Description for BRD3(1,2): as §1
Description for BRD4(fl): as §1
Description for BRD7: as §1
Description for BRD8(2): as §1
Description for BRDT(1,2): as §1
Description for BRDT(2): as §1
Description for PCAF: as §1
Description for SMARCA2: as §1
Description for TRIM24(PHD,BRD): as §1

As usually defined, the Kd is the free concentration of one partner at which half of the binding sites on the other are occupied at equilibrium, for simple one-to-one binding. With `Cc1cc(=O)n(C)c2cc(N3C(=O)CC[C@H](NS(=O)(=O)CC(C)C)[C@H]3c3ccc(Cl)cc3)ccc12` [LP-99], the dissociation constant (Kd) is more than 50 µM at EP300 [1] (BROMOscan); more than 50 µM on PCAF (BROMOscan); more than 50 µM on ATAD2B; more than 50 µM on TRIM24(PHD,BRD) (BROMOscan); 47 µM on BRD3(1,2) (BROMOscan); more than 50000 nM on BRD8(2) (BROMOscan, BRD8(2)). The Kd on BRD4(fl) (BROMOscan) was more than 50 µM; on BRDT(2) (BROMOscan) it was 33 µM; at SMARCA2 (BROMOscan, SMARCA2), more than 50000 nM; at BRD2(1,2) (BROMOscan), 35 µM; on BRDT(1,2) (BROMOscan), 21 µM. Also, the “HATs Activity (%)” value on EP300 [2] (1µM) was determined as 99%; at EP300 [2] (10µM), 98%; at MYST3 (1µM) it was 96%; at MYST3 (10µM) it was 100%; at GCN5L2 (1µM) it was 92%; at GCN5L2 (10µM), 89%. Also, the “HATs Activity (%)” value came to 90% at MYST1 (1µM), 88% on MYST1 (10µM), 104% on HAT1 (1µM) and 95% on HAT1 (10µM).

`COc1cc(C#N)ccc1S(=O)(=O)Nc1ccc2c(c1)cc(C)c(=O)n2C` [NI 57]: the Kd is 15 µM on EP300 [1]; 4.2 µM at PCAF; more than 50 µM on ATAD2B; 5.6 µM at TRIM24(PHD,BRD); 12 µM at BRD3(1,2); more than 50000 nM on BRD8(2) (BRD8(2)). The Kd on BRD4(fl) was 4.9 µM; at BRDT(2) it was more than 50 µM; on SMARCA2 (SMARCA2), more than 50000 nM; on BRD2(1,2), 12 µM; on BRDT(1,2) it was more than 50 µM.

Consider `COc1cc2c(cc1NS(=O)(=O)c1ccc(Br)cc1C)n(C)c(=O)n2C` [OF-1], for which the Kd at EP300 [1] stood at 47 µM; on PCAF it was 12 µM; at BRD7 it was 1 µM; at ATAD2B, 29 µM; on TRIM24(PHD,BRD) it was 4.5 µM; on BRD3(1,2), 4.9 µM. The Kd at BRD8(2) (BRD8(2)) was more than 50000 nM; on BRD8(2) (setting [3]) it was more than 30000 nM; on BRDT(2), 22 µM; at SMARCA2 (SMARCA2), more than 50000 nM; at SMARCA2 (setting [3]), more than 30000 nM; on BRD2(1,2) it was 5.6 µM. This molecule had a Kd at BRDT(1,2) of 11 µM. The “HATs Activity (%)” value is recorded as 100% at EP300 [2] (1µM); 103% on EP300 [2] (10µM); 100% on MYST3 (1µM); 102% on MYST3 (10µM); 98% at GCN5L2 (1µM); 93% at GCN5L2 (10µM). For the same molecule, the “HATs Activity (%)” value is given as 102% at MYST1 (1µM), 94% at MYST1 (10µM), 92% on HAT1 (1µM) and 93% at HAT1 (10µM).
